Data on 1 compound can be found in article PMC7813677 (Frontiers in Bioengineering and Biotechnology, 2021).

The series is described as follows: Dissolution of the peptide in water. The note with it: before addition of saline buffer pH 7.4. In kind it is physicochemical. As for the experimental part: Gels were prepared by dissolving lyophilized peptide in water to obtain 2X concentrated (wt%) peptide stock solution. Peptide assembly was initiated by mixing together equal volumes of peptide stock solution and chilled 2X HEPES buffer solution (150 mM HEPES, 300 mM NaCl, pH 7.4) on ice. The final mixed solution (1X wt% peptide in 75 mM HEPES, 150 mM NaCl, pH 7.4) was then incubated for 2 h at 37°C, resulting with a self-supporting gel.

Non-standard residues stand in square brackets, D forms with d. Residues, ends and D or L forms follow the SMILES beside them.

Take `CC(C)[C@H](N)C(=O)N[C@@H](CCCCN)C(=O)N[C@H](C(=O)N[C@@H](CCCCN)C(=O)N[C@H](C(=O)N[C@@H](CCCCN)C(=O)N[C@H](C(=O)N[C@@H](CCCCN)C(=O)N[C@H](C(=O)N1CCC[C@@H]1C(=O)N1CCC[C@H]1C(=O)N[C@H](C(=O)N[C@@H](CCCCN)C(=O)N[C@H](C(=O)N[C@@H](Cc1ccc(O)cc1)C(=O)N[C@H](C(=O)N[C@@H](CCCCN)C(=O)N[C@H](C(=O)N[C@@H](CCCCN)C(=O)N[C@H](C(N)=O)C(C)C)C(C)C)C(C)C)C(C)C)[C@@H](C)O)C(C)C)C(C)C)C(C)C)C(C)C` [tyrosine-functionalized peptide] (H-VKVKVKVKV[dP]PTKVYVKVKV-NH2): the Solubility in water entry is on record as “readily dissolved in water”.
